Like-named read-outs stand apart in the source and are kept apart here.
Key:
Male albino mice = assay: Hot-plate test (plate at 55°C), analgesic activity by the oral route; format: in vivo, mouse; details: read-out: Hot place EX50
Description: (§1) The analgesic activity of the compound of formula I by the oral route, has been determined in the mouse using the following tests: • - Phenylquinone test (Hendershot and Forsaith - J. Pharma- col. Exptl. Ther. 123, 237 (1959)); • - Hot-plate test. Male albino mice, treated with increasing doses of the compound under exam, are placed on a plate thermostatized at 55°C. An effective dose 50 (ED50) is defined as the dose inducing a 50% increase of the reaction time to the pain stimulus.

mouse [1] = assay: Phenylquinone test, analgesic activity by the oral route; format: in vivo
Description: as §1

[2] = test system: prostaglandine-synthetase; assay: Prostaglandine-synthetase inhibitory activity; format: biochemical
mouse [3] = assay: Jumping by nalorphine (physical addiction); format: in vivo
cyclooxygenase [4] = assay: Cyclooxygenase inhibitory activity; format: biochemical
Acute toxicity per os = details: in vivo, po, mouse, at the 14th observation day
From the text: The acute toxicity per os is expressed as LD50 at the 14th observation day.

[5] = test system: prostaglandine-synthetase; details: background statement on the known drug; cited from earlier work
cyclooxygenase [6] = details: background statement on the known drug; cited from earlier work

Row | SMILES | ED50 (Male albino mice; Mus musculus, po) | ED50 (mouse [1]) | ED50 (Male albino mice; mouse, oral route, plate at 55°C, dose inducing a 50% increase of the reaction time to the pain stimulus) | prostaglandine-synthetase inhibitory activity [2] | jumping by nalorphine (mouse [3]) | cyclooxygenase inhibitory activity (cyclooxygenase [4]) | LD50 at 336 h (Acute toxicity per os) | capacity of inhibiting prostaglandine-synthetase [5] | capacity of inhibiting cyclooxygenase (cyclooxygenase [6])
1 | COc1ccc2c3c1O[C@H]1[C@@H](O)C=C[C@H]4[C@@H](C2)N(C)CC[C@@]341.Cl [Codeine HCl, codeine hydrochloride, reference compound] | 25 mg/kg | 5.6 mg/kg | – | – | – | – | – | – | –
2 | Cc1c(C(=O)O)c(C)n(C)c1C(=O)c1ccc(F)cc1 [Compound I, 5-(4-fluoro-benzoyl)-1,2,4-trimethyl-3-pyrrolcarboxylic acid] | – | 2.1 mg/kg | 3.5 mg/kg | without cyclooxygenase and prostaglandine-synthetase inhibitory activity | does not induce | without cyclooxygenase and prostaglandine-synthetase inhibitory activity | > 1600 mg/kg | – | –
3 | Cc1cc(CC(=O)O)n(C)c1C(=O)c1ccc(Cl)cc1 [zomepirac, 5-(p-chlorobenzoyl)-l,4-dimethylpyrrole-2-acetic acid] | – | – | – | – | – | – | – | capacity of inhibiting the enzymes cyclooxygenase and prostaglandine-synthetase | capacity of inhibiting the enzymes cyclooxygenase and prostaglandine-synthetase
